Assays:
HBsAg secretion = experiment: Inhibition of HBsAg secretion (ELISA) in HepG2.2.15 cells; format: cell-based; settings: Hepatitis B virus, HepG2.2.15, read-out: Hbs Ag IC50
From the text: (§1) The chromosome of HepG2.2.15 cells integrates a complete HBV genome and stably expresses viral RNA and protein. HepG2.2.15 cells can secrete mature hepatitis B virus particles and HBsAg into culture medium. Virus particles DNA and HBsAg secreted by HepG 2.2.15 cells can be quantified by q-PCR and ELISA, and the effects of compounds on viral replication and HBsAg secretion can be detected.
(§2) HepG 2.2.15 cells were inoculated with 8,000 per cell to 96-well cell culture plates in duplicate, and were cultured for 3 days until the cells grew to full-hole. Cells were treated with 4-fold serial dilutions of compounds for 10 days, and were given alternately every other day. The final concentration of DMSO in all pores was 0.5% and DMSO was used as a drug-free control. The supernatant was collected for quantitative detection of HBsAg on day 11.
The level of HBsAg secreted by the compound after treatment is detected by ELISA method, and the method uses a hepatitis B surface antigen diagnostic kit (Shanghai Kehua Biotech Co., Ltd. S10910113). 25 μL of the supernatant to be assayed (PBS was diluted to 75 μL) was added to per well of the ELISA plate, positive control and negative control kit were set. ELISA plate was blocked with a cover paper, and incubated at 37° C. for 60 minutes. The ELISAplate was taken out, the seal was teared off, and 50 μL of enzyme conjugate was added to each well. The ELISA plate was oscillated on the shaker for 10 seconds, blocked with a cover paper and incubated at 37° C. for 30 minutes. The ELISA plate was taken out, the seal was teared off, and the ELISA plate was washed 5 times: each time the liquid in the hole was discarded, the washing liquid was filled into the holes, left to stand for 60 seconds, dried, and the liquid residue was patted on the absorbent paper. Immediately after the end of washing, a freshly prepared mixture of Developer A and Developer B was added to all wells: 100 μL per well. The ELISA plate was oscillated on the shaker for 10 seconds, blocked with a cover paper and incubated at 37° C. for 30 minutes. 50 μL of stop solution was added to all wells. Absorbance was read on the Envision plate reader at 450 nm. Concentration-HBsAg OD450 was processed using Graphpad Prism 5 software, and IC50 of Compounds Inhibiting Virus Replication was calculated by Four-parameter Nonlinear Regression Model.

HBV DNA replication = experiment: Inhibition of HBV virus replication (HBV DNA in supernatant, qPCR) in HepG2.2.15 cells; format: cell-based; settings: Hepatitis B virus, 10 days treatment, supernatant day 11, qPCR
From the text: as §1
as §2, with “HBV DNA” for “HBsAg”
Viral genomic DNA was detected by qPCR method, and HBV primers were as follows: • HBV-For-202, […] (SEQ ID NO:1); • HBV-Rev-315, […](SEQ ID NO:2).
The SYBR Premix Ex Taq II-Takara DRR081S kit was used, and 1 μL of cell culture supernatant was used as a template. A standard curve was made using a plasmid containing the HBV genome, and the viral copy number was calculated using the standard curve. Concentration-virus copy number was processed using Graphpad Prism 5 software, and IC50 of Compounds Inhibiting Virus Replication was calculated by Four-parameter Nonlinear Regression Model.

[1] = Pharmacokinetic experiments in beagle dogs; format: in vivo
Description: Pharmacokinetic experiments of the compounds of the invention in beagle dogs (Body weight 10-12 kg, male, age 10-12 months, 3 per oral group, 3 per intravenous injection group) Test method:
Beagle was administered orally with 2.5 mg/kg or 5 mg/kg of the compound tested or intravenously injected with 1 mg/kg or 2 mg/kg of the compound tested.
After administration, venous blood was collected at time points (0.083, 0.25, 0.5, 1, 2, 4, 6, 8 and 24 hours) and collected in an anticoagulation tube with EDTA-K2. After liquid-liquid extraction, plasma samples were quantitatively analyzed by multiple reaction ion monitoring (MRM) on a triple quadrupole tandem mass spectrometer. Pharmacokinetic parameters were calculated using a noncompartmental method by WinNonLin 6.3 software.

SMILES	IC50 (HBsAg secretion) [nM]	IC50 (HBV DNA replication) [nM]	further results
COc1cc2c(cc1-c1cnn(C3CCCC3)c1)CN(C(C)C)n1cc(C(=O)O)c(=O)cc1-2 [Example 18, 9-(1-cyclopentyl-1H-pyrazole-4-yl)-6-isopropyl-10-methoxy-2-oxo-6,7-dihydro-2H-pyrido [2,1-a]phthalazine-3-carboxylic acid]	3.73	2.28	–
COc1cc2c(cc1-c1cnn(C3CCC(F)(F)CC3)c1)CN(C(C)C)n1cc(C(=O)O)c(=O)cc1-2 [Example 7, 9-(1-(4,4-Difluorocyclohexyl)-1H-pyrazol-4-yl)-6-isopropyl-10-methoxy-2-oxo-6,7-dihydro-2H-pyrido[2,1-a]phthalazine-3-carboxylic acid]	6.73	1.76	–
COc1cc2c(cc1-c1cnn(C3CC(C)(C)OC(C)(C)C3)c1)CN(C(C)C)n1cc(C(=O)O)c(=O)cc1-2 [Example 8, 6-isopropyl-10-methoxy-2-oxo-9-(1-(2,2,6,6-tetramethyltetrahydro-2H-pyran-4-yl)-1H-pyrazole-4-yl)-6,7-dihydro-2H-pyrido[2,1-a]phthalazine-3-carboxylic acid]	6.03	6.26	–
COc1cc2c(cc1-c1cnn(C(F)F)c1)CN(C(C)C)n1cc(C(=O)O)c(=O)cc1-2 [Example 5, 9-(1-(difluoromethyl)-1H-pyrazole-4-yl)-6-isopropyl-10-methoxy-2-oxo-6,7-dihydro-2H-pyrido [2,1-a]phthalazine-3-carboxylic acid]	14.3	7.3	F ([1]; PO 5 mg/kg vs IV 1 mg/kg): 76.7%; AUC(0-inf) ([1]; male, dog, plasma, IV, 1 mg/kg): 17400 ng·h/mL; AUC(0-t) ([1]; male, dog, plasma, IV, 1 mg/kg): 16900 ng·h/mL; Cmax ([1]; male, dog, plasma, IV, 1 mg/kg): 2170 ng/mL; clearance ([1]; male, dog, plasma, IV, 1 mg/kg): 0.955 mL/min/kg; AUC(0-inf) ([1]; male, dog, plasma, PO, 5 mg/kg): 66700 ng·h/mL; AUC(0-t) ([1]; male, dog, plasma, PO, 5 mg/kg): 63300 ng·h/mL; Cmax ([1]; male, dog, plasma, PO, 5 mg/kg): 8710 ng/mL
COc1cc2c(cc1-c1nccs1)CN(C(C)C)n1cc(C(=O)O)c(=O)cc1-2 [Example 3, 6-isopropyl-10-methoxy-2-oxo-9-(thiazol-2-yl)-6,7-dihydro-2H-pyrido[2,1-a]phthalazine-3-carboxylic acid]	3.26	1.71	–
COc1cc2c(cc1-c1cnn(C3CCC3)c1)CN(C(C)C)n1cc(C(=O)O)c(=O)cc1-2 [Example 17, 9-(1-cyclobutyl-1H-pyrazole-4-yl)-6-isopropyl-10-methoxy-2-oxo-6,7-dihydro-2H-pyrido[2,1-a]phthalazine-3-carboxylic acid]	4.07	2.82	–
COc1cc2c(cc1-c1cnn(C(C)C)c1)CN(C1CCC1)n1cc(C(=O)O)c(=O)cc1-2 [Example 15, 6-cyclobutyl-9-(1-isopropyl-1H-pyrazol-4-yl)-10-methoxy-2-oxo-6,7-dihydro-2H-pyrido[2,1-a]phthalazine-3-carboxylic acid]	1.83	2.1	–
COc1cc2c(cc1-c1cccs1)CN(C(C)C)n1cc(C(=O)O)c(=O)cc1-2 [Example 2, 6-isopropyl-10-methoxy-2-oxo-9-(thiophen-2-yl)-6,7-dihydro-21H-pyrido[2,1-a]phthalazine-3-carboxylic acid]	1.72	2.06	–
COc1cc2c(cc1-c1ccco1)CN(C(C)C)n1cc(C(=O)O)c(=O)cc1-2 [Example 1, 9-(furan-2-yl)-6-isopropyl-10-methoxy-2-oxo-6,7-dihydro-2H-pyrido[2,1-a]phthalazine-3-carb oxylic acid]	4.27	2.68	–
COc1cc2c(cc1-c1cnn(C3CC3)c1)CN(C(C)C)n1cc(C(=O)O)c(=O)cc1-2 [Example 16, 9-(1-cyclopropyl-1H-pyrazole-4-yl)-6-isopropyl-10-methoxy-2-oxo-6,7-dihydro-2H-pyrido[2,1-a]phthalazine-3-carboxylic acid]	6.11	2.74	–
COc1cc2c(cc1-c1cnn(C3CCOCC3)c1)CN(C(C)C)n1cc(C(=O)O)c(=O)cc1-2 [Example 19, 6-isopropyl-10-methoxy-2-oxo-9-(1-(tetrahydro-2H-pyran-4-yl)-1H-pyrazole-4-yl)-6,7-dihydro-2H-pyrido[2,1-a]phthalazine-3-carboxylic acid]	7.82	3.98	–
COc1cc2c(cc1-c1cnn(C(C)C)c1)CN(C(C)(C)C)n1cc(C(=O)O)c(=O)cc1-2 [Example 13, 6-(tert-butyl)-9-(1-isopropyl-1H-pyrazol-4-yl)-10-methoxy-2-oxo-6,7-dihydro-2H-pyrido[2,1-a]phthalazine-3-carboxylic acid]	0.97	0.7	–
COc1cc2c(cc1-c1cnn(C(C)C)c1)CN(C1CC1)n1cc(C(=O)O)c(=O)cc1-2 [Example 14, 6-cyclopropyl-9-(1-isopropyl-1H-pyrazol-4-yl)-10-methoxy-2-oxo-6,7-dihydro-2H-pyrido[2,1-a]phthalazine-3-carboxylic acid]	< 0.24	< 0.24	–
COc1cc2c(cc1-c1cnn(C(C)C)c1)CN(C(C)C)n1cc(C(=O)O)c(=O)cc1-2 [Example 4, 6-isopropyl-9-(1-isopropyl-1H-pyrazol-4-yl)-10-methoxy-2-oxo-6,7-dihydro-2H-pyrido[2,1-a]phthalazine-3-carboxylic acid]	9.6	3.81	–

Source: patent US12128044B2, “Fused tricyclic compounds and uses thereof in medicine” (SUNSHINE LAKE PHARMA CO., LTD., priority 2018, dated 2024)
